Test results published in the NIST ThermoML archive (doi:10.1021/acs.jced.9b00046).
Numbers after ± are expanded uncertainties.

Conditions: 99.6 kPa, Liquid; for viscosity: Capillary tube (Ostwald / Ubbelohde) method; for mass density: Vibrating tube method

CNC(C)=O [N-methylacetamide]
Conditions	mass density [kg/m3]	viscosity [mPa·s]
308.15 K	945.71 ± 1.9	3.488 ± 0.043
313.15 K	941.53 ± 1.9	3.073 ± 0.038
318.15 K	937.33 ± 1.9	2.723 ± 0.034
323.15 K	933.16 ± 1.9	2.438 ± 0.03
328.15 K	928.93 ± 1.9	2.194 ± 0.027
